Experimental data from patent US20230027295A1, “FXIA INHIBITORS AND PREPARATION METHOD THEREFOR AND PHARMACEUTICAL USE THEREOF” (Shenzhen Salubris Pharmaceuticals Co., Ltd., priority 2019, published 2023).

How the values were obtained:
Human Factor XIa = Human Factor XIa (Homo sapiens, UniProt P03951); assay: Inhibition of human coagulation factor XIa by absorptiometry (substrate S-2366); format: biochemical; conditions: 37° C., 20 min incubation, absorbance 405 nm; read-out: hFXIa IC50
Protocol: Example 50: Detection of the Biological Activity of the Compounds of the Present Invention on the Inhibition of Human Coagulation Factor XIa by Absorptiometry
Buffer: 145 mM NaCl, 5 mM KCl, 1 mg/mL PEG 8000, 30 mM HEPES, pH 7.4
10 mM test compound dissolved in 100% DMSO was diluted with 100% DMSO to […]; 98 μL of FXIa enzyme solution (77.7 ng/mL) was added to each well of a 96-well plate, and 98 μL of buffer was added to the blank wells. 2 μL of compounds of different concentrations were added, and the blank and control wells were added with DMSO instead. They were mixed with a shaker, and incubated at 37° C. for 20 minutes.
Finally, 100 μL of 800 μM substrate was added to each well, and its absorbance was measured at 405 nm.

human plasma = assay: Anticoagulant effect on human plasma in vitro (APTT determination); format: biochemical; conditions: for aPTT EC1.5×: concentration giving APTT of 1.5× blank control; for aPTT EC2×: concentration giving APTT of 2× blank control
Protocol: Example 51: Determination of the Anticoagulant Effect of the Compounds of the Present Invention on Human Plasma In Vitro
Plasma: Human blood was collected in a vacuum blood collection tube containing 3.2% sodium citrate (volume ratio 1:9), centrifuged at 3000 rpm for 10 min at room temperature, and the plasma was collected, divided into EP tubes, and stored at −80° C.
Reagents: APTT assay kit (Activated partial thromboplastin time assay kit, mindray), calcium chloride solution.
Instrument: coagulation meter (mindray, C2000-A)
The frozen human plasma in aliquots was thawed at room temperature and mixed well. 10 mM test compound dissolved in 100% DMSO was diluted with 100% DMSO to 1500, 750, 375, 187.5, 93.75, 46.88, 23.44, 11.72 μM. 98 μL of human plasma was added to a 1.5 mL EP tube, then 2 μL of compounds of different concentrations were added, and 2 μL of 100% DMSO was added for the blank group. They were incubated under a water bath at 37° C. for 10 min, and the samples were placed in the corresponding position of the coagulation analyzer to conduct APTT determination of the compounds.
Curve fitting was performed with GraphPad Prism software, and EC1.5× and EC2× values were calculated respectively, i.e., the concentrations of the compounds corresponding to the APTT of 1.5× and 2× blank control group.

Sequence of Human Factor XIa (P03951 388-625 limits assumed): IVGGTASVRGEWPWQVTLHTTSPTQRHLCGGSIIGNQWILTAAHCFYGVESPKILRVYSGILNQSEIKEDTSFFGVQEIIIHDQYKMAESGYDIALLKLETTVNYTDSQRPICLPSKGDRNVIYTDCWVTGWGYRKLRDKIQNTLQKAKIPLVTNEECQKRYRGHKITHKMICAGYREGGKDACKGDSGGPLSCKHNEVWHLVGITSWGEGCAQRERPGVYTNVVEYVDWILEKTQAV
Sequence of Human Factor XIa (P03951 19-387 partner limits assumed): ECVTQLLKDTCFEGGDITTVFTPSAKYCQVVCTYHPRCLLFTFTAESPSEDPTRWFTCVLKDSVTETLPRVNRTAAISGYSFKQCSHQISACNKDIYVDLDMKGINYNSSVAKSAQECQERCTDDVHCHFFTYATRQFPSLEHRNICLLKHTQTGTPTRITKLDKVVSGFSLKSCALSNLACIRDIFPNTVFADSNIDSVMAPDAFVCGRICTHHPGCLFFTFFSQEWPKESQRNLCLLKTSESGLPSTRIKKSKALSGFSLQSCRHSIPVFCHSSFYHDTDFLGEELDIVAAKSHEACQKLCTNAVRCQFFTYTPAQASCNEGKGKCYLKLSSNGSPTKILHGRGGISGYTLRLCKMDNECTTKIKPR

Structure (SMILES) | IC50 (Human Factor XIa) [nM] | aPTT EC1.5× (human plasma) [µM] | aPTT EC2× (human plasma) [µM]
COc1nn(C(Cc2ccc(NC(=O)C3CCC3)cc2)C(=O)Nc2ccc(C(=O)O)cc2)c(=O)cc1-c1cc(Cl)ccc1C(C)=O (stereo not drawn) [Example 39, 4-(2-(4-(2-acetyl-5-chlorophenyl)-3-methoxy-6-oxopyridazin-1(6H)-yl)-3-(4-(cyclobutaneformamido)phenyl)propanamido)benzoic acid] | 16.4 | 1.638 | 6.859
CC(=O)c1ccc(Cl)cc1-c1cc(=O)n([C@@H](Cc2ccccc2)C(=O)Nc2ccc(C(=O)O)cc2)nc1OCC1CC1 [Example 20, (S)-4-(2-(4-(2-acetyl-5-chlorophenyl)-3-(cyclopropylmethoxy)-6-oxopyridazin-1(6H)-yl)-3-phenylpropanamido)benzoic acid] | 20.6 | 2.418 | 28.32
COc1nn(C(Cc2cccc(C)c2)C(=O)Nc2ccc(C(=O)O)cc2)c(=O)cc1-c1cc(Cl)ccc1C(C)=O (stereo not drawn) [Example 8, 4 (2-(4-(2-acetyl-5-chlorophenyl)-3-methoxy-6-oxopyridazine-1(6H)-yl)-3-(m-tolyl)propanamido)benzoic acid] | 30.3 | 2.67 | >15

More lines, in order of falling IC50 (Human Factor XIa), values ahead:

IC50 (Human Factor XIa) [nM] | Structure (SMILES) | aPTT EC1.5× (human plasma) [µM] | aPTT EC2× (human plasma) [µM]
45.6 | COc1nn(C(Cc2ccc(F)cc2)C(=O)Nc2ccc(C(=O)O)cc2)c(=O)cc1-c1cc(Cl)ccc1C(C)=O (stereo not drawn) [Example 2] | 3.455 | >15
16.5 | COc1nn([C@@H](Cc2ccccc2)C(=O)Nc2ccc(C(=O)O)cc2)c(=O)cc1-c1cc(Cl)ccc1C(=O)CO [Example 35, (S)-4-(2-(4-(5-chloro-2-(2-hydroxyacetyl)phenyl)-3-methoxy-6-oxopyridazin-1(6H)-yl)-3-phenylpropanamido)benzoic acid] | 1.271 | 5.987
13.9 | COc1nn(C(Cc2ccc(NC(=O)C3CCCC3)cc2)C(=O)Nc2ccc(C(=O)O)cc2)c(=O)cc1-c1cc(Cl)ccc1C(C)=O (stereo not drawn) [Example 40, 4-(2-(4-(2-acetyl-5-chlorophenyl)-3-methoxy-6-oxopyridazin-1(6H)-yl)-3-(4-(cyclopentaneformamido)phenyl)propanamido)benzoic acid] | 2.636 | 14.94
11.6 | COc1nn([C@@H](Cc2ccccc2)C(=O)Nc2ccc(C(=O)O)cc2)c(=O)cc1-c1cc(Cl)ccc1C(=O)C(F)F [Example 36, (S)-4-(2-(4-(5-chloro-2-(2,2-difluoroacetyl)phenyl)-3-methoxy-6-oxopyridazine-1(6H)-yl)-3-phenylpropanamido)benzoic acid] | 1.348 | 6.562
